Measurements as given in PubChem BioAssay AID2060604 (Molecular Pharmacology Branch, DTP, NCI, 2025).

Tested on: 379773-124-R-J2-PDC complex spheroids, viability % test/control
Experiment: Anticancer human tumor 379773-124-R-J2-PDC patient-derived endometrial carcinoma cell line growth inhibition [CLK]
Conditions: for IC50: curve of first compound; for viability, T/C: stronger effect = lower value
How it was run: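 Patient-derived tumor cells grown as complex spheroids with HUVEC endothelial cells and mesenchymal stem cells, treated with drug combinations. Concentrations descend in half-log steps from near clinical Cmax, or from 10 microM if Cmax unknown.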
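Also: compound exposure lasted seven days before the viability readout.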
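For viability, T/C in this document: 100% = DMSO vehicle control wells.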

**Q.** With CC(Nc1ccc2c(c1)OCCn1cc(N3C(=O)OCC3C(F)F)nc1-2)C(N)=O (configuration not stated) + CNC(=O)c1ccc(Nc2nc(OC3CCCC3)c3c(-c4ccc5nc(C)oc5c4)c[nH]c3n2)c(OC)c1 as the compound, how does the IC50 (second compound 0.0316 µM) read?
**A.** Its IC50 is > 10000 nM.

**Q.** What about the IC50 (second compound 0.1 µM) of the same compound?
**A.** The IC50 was < 31.6 nM.

**Q.** What about the IC50 (second compound 0.316 µM) of the same compound?
**A.** Its IC50 is < 31.6 nM.

**Q.** What about the IC50 (second compound 1 µM) of the same compound?
**A.** Its IC50 is < 31.6 nM.

**Q.** What about the IC50 (second compound 3.16 µM) of the same compound?
**A.** The IC50 was < 31.6 nM.

**Q.** And the IC50 (second compound 10 µM)?
**A.** Its IC50 is < 31.6 nM.

**Q.** What about the viability, T/C (second compound 0.0316 µM, first compound 0.0316 µM) of the same compound?
**A.** Its viability, T/C is 74.7%.

**Q.** What about the viability, T/C (second compound 0.0316 µM, first compound 0.1 µM) of the same compound?
**A.** The viability, T/C was 72.8%.

**Q.** What about the viability, T/C (second compound 0.0316 µM, first compound 0.316 µM) of the same compound?
**A.** The viability, T/C was 78.1%.

**Q.** What about the viability, T/C (second compound 0.0316 µM, first compound 1 µM) of the same compound?
**A.** Its viability, T/C is 73.9%.

**Q.** And the viability, T/C (second compound 0.0316 µM, first compound 3.16 µM)?
**A.** The viability, T/C was 76.3%.

**Q.** And the viability, T/C (second compound 0.0316 µM, first compound 10 µM)?
**A.** Its viability, T/C is 62.8%.

**Q.** What about the viability, T/C (second compound 0.1 µM, first compound 0.0316 µM) of the same compound?
**A.** The viability, T/C was 38.7%.

**Q.** What about the viability, T/C (second compound 0.1 µM, first compound 0.1 µM) of the same compound?
**A.** The viability, T/C was 33.6%.

**Q.** What about the viability, T/C (second compound 0.1 µM, first compound 0.316 µM) of the same compound?
**A.** Its viability, T/C is 21.3%.

**Q.** And the viability, T/C (second compound 0.1 µM, first compound 1 µM)?
**A.** The viability, T/C was 23.2%.

**Q.** What about the viability, T/C (second compound 0.1 µM, first compound 3.16 µM) of the same compound?
**A.** Its viability, T/C is 24.6%.

**Q.** And the viability, T/C (second compound 0.1 µM, first compound 10 µM)?
**A.** Its viability, T/C is 15.3%.

**Q.** What about the viability, T/C (second compound 0.316 µM, first compound 0.0316 µM) of the same compound?
**A.** Its viability, T/C is 40.3%.

**Q.** And the viability, T/C (second compound 0.316 µM, first compound 0.1 µM)?
**A.** The viability, T/C was 30.3%.

**Q.** What about the viability, T/C (second compound 0.316 µM, first compound 0.316 µM) of the same compound?
**A.** Its viability, T/C is 29.1%.

**Q.** And the viability, T/C (second compound 0.316 µM, first compound 1 µM)?
**A.** The viability, T/C was 29.2%.

**Q.** What about the viability, T/C (second compound 0.316 µM, first compound 3.16 µM) of the same compound?
**A.** The viability, T/C was 19.1%.

**Q.** What about the viability, T/C (second compound 0.316 µM, first compound 10 µM) of the same compound?
**A.** The viability, T/C was 16.7%.

**Q.** And the viability, T/C (second compound 1 µM, first compound 0.0316 µM)?
**A.** Its viability, T/C is 35.5%.

**Q.** And the viability, T/C (second compound 1 µM, first compound 0.1 µM)?
**A.** Its viability, T/C is 28.9%.

**Q.** What about the viability, T/C (second compound 1 µM, first compound 0.316 µM) of the same compound?
**A.** The viability, T/C was 25.1%.

**Q.** What about the viability, T/C (second compound 1 µM, first compound 1 µM) of the same compound?
**A.** The viability, T/C was 22.4%.

**Q.** What about the viability, T/C (second compound 1 µM, first compound 3.16 µM) of the same compound?
**A.** The viability, T/C was 19.9%.

**Q.** What about the viability, T/C (second compound 1 µM, first compound 10 µM) of the same compound?
**A.** Its viability, T/C is 9.04%.

**Q.** And the viability, T/C (second compound 3.16 µM, first compound 0.0316 µM)?
**A.** Its viability, T/C is 32.5%.

**Q.** And the viability, T/C (second compound 3.16 µM, first compound 0.1 µM)?
**A.** The viability, T/C was 30%.

**Q.** And the viability, T/C (second compound 3.16 µM, first compound 0.316 µM)?
**A.** The viability, T/C was 23%.

**Q.** What about the viability, T/C (second compound 3.16 µM, first compound 1 µM) of the same compound?
**A.** Its viability, T/C is 22.7%.

**Q.** And the viability, T/C (second compound 3.16 µM, first compound 3.16 µM)?
**A.** Its viability, T/C is 18.3%.

**Q.** What about the viability, T/C (second compound 3.16 µM, first compound 10 µM) of the same compound?
**A.** Its viability, T/C is 11.7%.

**Q.** What about the viability, T/C (second compound 10 µM, first compound 0.0316 µM) of the same compound?
**A.** Its viability, T/C is 32.5%.

**Q.** And the viability, T/C (second compound 10 µM, first compound 0.1 µM)?
**A.** The viability, T/C was 28.6%.

**Q.** What about the viability, T/C (second compound 10 µM, first compound 0.316 µM) of the same compound?
**A.** Its viability, T/C is 23.5%.

**Q.** What about the viability, T/C (second compound 10 µM, first compound 1 µM) of the same compound?
**A.** The viability, T/C was 18.6%.

**Q.** And the viability, T/C (second compound 10 µM, first compound 3.16 µM)?
**A.** The viability, T/C was 22.3%.

**Q.** What about the viability, T/C (second compound 10 µM, first compound 10 µM) of the same compound?
**A.** Its viability, T/C is 14%.
